Experimental data taken from US20240189315A1, “Cyclic Pyridine Derivatives as cGAS Inhibitors” (Boehringer Ingelheim International GmbH, priority 2022, published 2024).
Where two headings read alike, the source gives them in different places.

Tests used:
[1] = amide bond, HATU, 25.0 °C, 1.0 h
[2] = molecular target: T1, cellular cGAS activity in baculovirus-stimulated THP1-Dual cells (Homo sapiens (Human), UniProt Q8N884); experiment: Human cGAS cell assay (THP1(vir) IC50): IFN induction in virus-stimulated THP1-Dual cells, IRF Lucia luciferase reporter;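 also: Eight-point dilution series starting at 10 µM, 1% DMSO, 18 h at 37 °C, luminescence read-out, virus-free wells as 0% and DMSO-treated virus-stimulated wells as 100%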; format: cell-based; details: Table 3; Compound No. 5 of WO 2022/174012; read-out: THP1(vir) IC50
T1 sequence (Q8N884 whole entry): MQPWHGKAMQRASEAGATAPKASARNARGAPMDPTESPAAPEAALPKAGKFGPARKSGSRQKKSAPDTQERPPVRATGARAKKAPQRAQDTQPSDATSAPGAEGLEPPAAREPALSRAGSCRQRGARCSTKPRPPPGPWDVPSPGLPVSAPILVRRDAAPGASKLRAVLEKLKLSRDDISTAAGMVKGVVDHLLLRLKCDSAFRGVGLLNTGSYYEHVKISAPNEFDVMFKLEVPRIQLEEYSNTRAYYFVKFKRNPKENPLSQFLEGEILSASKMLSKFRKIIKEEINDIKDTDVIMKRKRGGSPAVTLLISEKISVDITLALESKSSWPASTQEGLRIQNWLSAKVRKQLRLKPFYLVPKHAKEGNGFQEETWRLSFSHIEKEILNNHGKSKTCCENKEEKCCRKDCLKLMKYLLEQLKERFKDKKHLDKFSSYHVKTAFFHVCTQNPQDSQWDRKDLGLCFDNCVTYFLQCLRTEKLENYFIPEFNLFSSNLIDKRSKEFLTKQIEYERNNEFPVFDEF

Human cGAS enzyme = Human cGAS enzyme (Homo sapiens (Human), UniProt Q8N884); experiment: Human cGAS enzyme assay (hcGAS IC50, in vitro), cGAMP formation by RapidFire MS;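 also: recombinant human cGAS activated by 45 bp dsDNA with 30 µM each ATP and GTP, 90 min, cGAMP vs cyclic-di-GMP standard by MS, 8-point titration from 10 µM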; format: biochemical; details: Table 3; Compound No. 5 of WO 2022/174012 re-tested in the applicant's assay
Human cGAS enzyme, sequence (Q8N884 whole entry): as above

THP-1 = details: Table 3, page 67/68 of WO 2022/174012; read-out: cellular IC50-value group (IFNβ ELISA stimulated with THP-1); cited from earlier work
[3] = tested on: pathway directly downstream of cGAS in cGAMP-stimulated THP1-Dual cells; experiment: cGAMP stimulated counter cell assay (THP1(cGAMP) IC50): IFN induction in cGAMP-stimulated THP1-Dual cells; format: cell-based, human; details: Homo sapiens, THP1-Dual; Table 3; Compound No. 5 of WO 2022/174012; read-out: THP1(cGAMP) IC50
Summary of the method: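 THP1-Dual cells with IRF-driven Lucia luciferase reporter, stimulated by empty baculovirus (cGAS route) or by cGAMP (counter assay); 5000 cells/well, 8-point dilutions from 10 μM top, 1% DMSO, 18 h at 37° C. Luminescence read; IC50 by 4-parameter logistic fit against unstimulated low control.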

[4] = molecular target: cellular cGAS activity in dsDNA-stimulated human whole blood (Homo sapiens (Human), UniProt Q8N884); details: Table 4; compounds and methyl ester prodrugs of PCT/EP2022/062480 and PCT/EP2022/062496; read-out: hWB IC50; cited from earlier work
cellular cGAS activity in dsDNA-stimulated human whole blood, sequence (Q8N884 whole entry): as above

[5] = molecular target: T1, cellular cGAS activity in baculovirus-stimulated THP1-Dual cells; details: Table 4; compounds and methyl ester prodrugs of PCT/EP2022/062480 and PCT/EP2022/062496; read-out: THP1(vir) IC50; cited from earlier work
[6] = tested on: pathway directly downstream of cGAS in cGAMP-stimulated THP1-Dual cells; details: Table 4; compounds and methyl ester prodrugs of PCT/EP2022/062480 and PCT/EP2022/062496; cited from earlier work

| SMILES | IC50 [4] | IC50 [5] | IC50 [6] | also measured |
| --- | --- | --- | --- | --- |
| C[C@H]1CN2CC[C@]1(F)c1cc(Cl)cnc1O[C@H]1C[C@@H](C(=O)OC(C)(C)C)N(C1)c1nc(nc3c1oc1ccccc13)CC(=O)NCCCC2=O |  |  |  | ring closure, yield of all isomers ([1]; from C[C@H]1CN(C(=O)CCCN)CC[C@]1(F)c1cc(Cl)cnc1O[C@H]1C[C@@H](C(=O)OC(C)(C)C)N(c2nc(CC(=O)O)nc3c2oc2ccccc23)C1, DMF, 10.0 mM): 42% |
| C[C@H]1CN2CC[C@]1(F)c1cc(Cl)cnc1O[C@H]1C[C@@H](C(=O)OC(C)(C)C)N(C1)c1nc(nc3c1oc1ccccc13)CC(=O)NCCOC2=O |  |  |  | ring closure, yield of all isomers ([1]; from C[C@H]1CN(C(=O)OCCN)CC[C@]1(F)c1cc(Cl)cnc1O[C@H]1C[C@@H](C(=O)OC(C)(C)C)N(c2nc(CC(=O)O)nc3c2oc2ccccc23)C1, DMA, 15.75 mM): 11.3% |
| Cc1nc(N2C[C@@H](CC(=O)Nc3ccc(-c4ccccc4)cc3)C[C@H]2C(=O)O)c2oc3ccccc3c2n1 [Compound 5 (BBL0100455), reference compound] |  |  |  | IC50 [2]: > 10000 nM; IC50 (Human cGAS enzyme): 55 nM; IC50 (THP-1): < 1000 nM; IC50 [3]: > 10000 nM |
| C#Cc1cnc(O[C@H]2C[C@@H](C(=O)OC)N(c3nc(C(F)(F)F)nc4c3oc3ccccc34)C2)c([C@@]2(F)CCS(=O)(=O)C[C@@H]2C)c1 [P01 of PCT/EP2022/062496] | 67 nM | 11 nM | > 16600 nM |  |
| COC(=O)[C@@H]1C[C@H](Oc2ncc(Br)cc2N2CCOC3(COC3)[C@@H]2C)CN1c1nc(C(F)(F)F)nc2c1oc1ccccc12 [P02 of PCT/EP2022/062480] | 5330 nM | 444 nM | 17100 nM |  |
| COC(=O)[C@@H]1C[C@H](Oc2ncc(Cl)cc2[C@@]2(F)CCS(=O)(=O)C[C@@H]2C)CN1c1nc(C(F)F)nc2c1oc1ccccc12 [P02 of PCT/EP2022/062496] | 140 nM | 29 nM | > 16600 nM |  |
| C#Cc1cnc(O[C@H]2C[C@@H](C(=O)OC)N(c3nc(C(F)(F)F)nc4c3oc3ccccc34)C2)c(N2CCOC3(COC3)[C@@H]2C)c1 [P03 of PCT/EP2022/062480] | 1090 nM | 188 nM | 22800 nM |  |
| COC(=O)[C@@H]1C[C@H](Oc2ncc(Cl)cc2[C@@]2(OC)CC(C)(C)S(=O)(=O)C[C@@H]2C)CN1c1nc(C(F)F)nc2c1oc1ccccc12 [P03 of PCT/EP2022/062496] | 1990 nM | 202 nM | 20600 nM |  |
| COC(=O)[C@@H]1C[C@H](Oc2ncc(-c3cccnc3OC)cc2N2CCOC3(COC3)[C@@H]2C)CN1c1nc(C(F)(F)F)nc2c1oc1ccccc12 [P04 of PCT/EP2022/062480] | 2750 nM | 67 nM | > 16600 nM |  |
